From patent US11311520B2, “Substituted dihydroimidazopyridinediones as MKNK1 and MKNK2 inhibitors” (Bayer Pharma Aktiengesellschaft, priority 2017, dated 2022)

Molecular target: human full-length MKNK1 (Homo sapiens (Human), UniProt Q9BUB5, T344D)
Assay: MKNK1 kinase high ATP assay (TR-FRET)
Type: biochemical
Conditions: 2 mM ATP, 15 min preincubation with enzyme, GST-MKNK1 (T344D)
Procedure: MKNK1 Kinase High ATP Assay
MKNK1-inhibitory activity at high ATP of compounds of the present invention after their preincubation with MKNK1 was quantified employing the TR-FRET-based MKNK1 high ATP assay as described in the following paragraphs.
A recombinant fusion protein of Glutathione-S-Transferase (GST, N-terminally) and human full-length MKNK1 (amino acids 1-424 and T344D of accession number BAA 19885.1), expressed in insect cells using baculovirus expression system and purified via glutathione sepharose affinity chromatography, was purchased from Carna Biosciences (product no 02-145) and used as enzyme. As substrate for the kinase reaction the biotinylated peptide biotin-Ahx-IKKRKLTRRKSLKG (SEQ ID NO: 1) (C-terminus in amide form) was used, which can be purchased e.g. from the company Biosyntan (Berlin-Buch, Germany)
For the assay 50 nL of a 100 fold concentrated solution of the test compound in DMSO was pipetted into a black low volume 384 well microtiter plate (Greiner Bio-One, Frickenhausen, Germany), 2 μL of a solution of MKNK1 in aqueous assay buffer [50 mM HEPES pH 7.5, 5 mM MgCl2, 1.0 mM dithiothreitol, 0.005% (v/v) Nonidet-P40 (Sigma)] was added and the mixture was incubated for […] at 22° C. to allow pre-binding of the test compounds to the enzyme before the start of the kinase reaction. Then the kinase reaction was started by the addition of 3 μL of a solution of adenosine-tri-phosphate (ATP, 3.3 mM=>final conc. in the 5 μL assay volume is 2 mM) and substrate (0.1 μM=>final conc. in the 5 μL assay volume is 0.06 μM) in assay buffer and the resulting mixture was incubated for a reaction time of 30 min at 22° C. The concentration of MKNK1 was adjusted depending of the activity of the enzyme lot and was chosen appropriate to have the assay in the linear range, typical concentrations were in the range of 0.003 μg/mL. The reaction was stopped by the addition of 5 μL of a solution of TR-FRET detection reagents (5 nM streptavidine-XL665 [Cisbio Bioassays, Codolet, France] and 1 nM anti-ribosomal protein S6 (pSer236)-antibody from Invitrogen [#44921G] and 1 nM LANCE EU-W1024 labeled ProteinG [Perkin-Elmer, product no. AD0071]) in an aqueous EDTA-solution (100 mM EDTA, 0.1% (w/v) bovine serum albumin in 50 mM HEPES pH 7.5).
The resulting mixture was incubated for 1 h at 22° C. to allow the formation of complex between the phosphorylated biotinylated peptide and the detection reagents. Subsequently the amount of phosphorylated substrate was evaluated by measurement of the resonance energy transfer from the Eu-chelate to the streptavidine-XL. Therefore, the fluorescence emissions at 620 nm and 665 nm after excitation at 350 nm were measured in a TR-FRET reader, e.g. a Rubystar (BMG Labtechnologies, Offenburg, Germany) or a Viewlux (Perkin-Elmer). The ratio of the emissions at 665 nm and at […] was taken as the measure for the amount of phosphorylated substrate. The data were normalised (enzyme reaction without inhibitor=0% inhibition, all other assay components but no enzyme=100% inhibition).

Sequence of human full-length MKNK1 (Q9BUB5 other isoform, or with tags, fused parts or gaps T344D): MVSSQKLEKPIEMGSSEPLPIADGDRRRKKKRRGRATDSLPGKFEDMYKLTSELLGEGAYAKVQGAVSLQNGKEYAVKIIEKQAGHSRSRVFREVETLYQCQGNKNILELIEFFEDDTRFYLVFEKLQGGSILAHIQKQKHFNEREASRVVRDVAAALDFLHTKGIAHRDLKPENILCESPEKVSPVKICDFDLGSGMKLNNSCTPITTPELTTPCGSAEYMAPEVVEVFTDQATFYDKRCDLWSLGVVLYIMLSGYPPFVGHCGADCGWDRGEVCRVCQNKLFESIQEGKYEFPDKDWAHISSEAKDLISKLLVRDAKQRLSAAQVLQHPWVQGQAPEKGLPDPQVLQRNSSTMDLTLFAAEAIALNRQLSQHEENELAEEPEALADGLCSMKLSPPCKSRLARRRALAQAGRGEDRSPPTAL

SMILES	IC50
Cc1cc(Nc2ncnc3c2ncn3CC(C)O)c(=O)n2c1C(=O)NC21CCCCC1 (racemic) [Example 39, (RS)-6′-{[9-(2-Hydroxypropyl)-9H-purin-6-yl]amino}-8′-methyl-2′H-spiro[cyclohexane-1,3′-imidazo[1,5-a]pyridine]-1′,5′-dione]	0.744 µM
Cc1cc(Nc2ncnc(NC(=O)C3CC3)n2)c(=O)n2c1C(=O)NC21CCCCC1 [Example 1, N-{4-[(8′-Methyl-1′,5′-dioxo-1′,5′-dihydro-2′H-spiro[cyclohexane-1,3′-imidazo[1,5-a]pyridin]-6′-yl)amino]-1,3,5-triazin-2-yl}cyclopropanecarboxamide]	0.0025 µM
Cc1cc(Nc2ncnc(N)n2)c(=O)n2c1C(=O)NC21CCCCC1 [Example 2, 6′-[(4-Amino-1,3,5-triazin-2-yl)amino]-8′-methyl-2′H-spiro[cyclohexane-1,3′-imidazo[1,5-a]pyridine]-1′,5′-dione]	0.0064 µM
CCCNC(=O)Nc1ncnc(Nc2cc(C)c3n(c2=O)C2(CCCCC2)NC3=O)n1 [Example 3, 1-{4-[(8′-Methyl-1′,5′-dioxo-1′,5′-dihydro-2′H-spiro[cyclohexane-1,3′-imidazo[1,5-a]pyridin]-6′-yl)amino]-1,3,5-triazin-2-yl}-3-propylurea]	0.0188 µM
Cc1cc(Nc2ccnc3ccccc23)c(=O)n2c1C(=O)NC21CCCCC1 [Example 4, 8′-Methyl-6′-(quinolin-4-ylamino)-2′H-spiro[cyclohexane-1,3′-imidazo[1,5-a]pyridine]-1′,5′-dione]	0.306 µM
Cc1cc(Nc2ncnc3sccc23)c(=O)n2c1C(=O)NC21CCCCC1 [Example 5, 8′-Methyl-6′-(thieno[2,3-d]pyrimidin-4-ylamino)-2′H-spiro[cyclohexane-1,3′-imidazo[1,5-a]pyridine]-1′,5′-dione]	0.0064 µM
Cc1cc(Nc2ncnc3[nH]ccc23)c(=O)n2c1C(=O)NC21CCCCC1 [Example 6, 8′-Methyl-6′-(7H-pyrrolo[2,3-d]pyrimidin-4-ylamino)-2′H-spiro[cyclohexane-1,3′-imidazo[1,5-a]pyridine]-1′,5′-dione]	0.0003 µM
Cc1cc(Nc2ncnc3[nH]ncc23)c(=O)n2c1C(=O)NC21CCCCC1 [Example 7, 8′-Methyl-6′-(1H-pyrazolo[3,4-d]pyrimidin-4-ylamino)-2′H-spiro[cyclohexane-1,3′-imidazo[1,5-a]pyridine]-1′,5′-dione]	0.002 µM
Cc1cc(Nc2ncnc3ccccc23)c(=O)n2c1C(=O)NC21CCCCC1 [Example 8, 8′-Methyl-6′-(quinazolin-4-ylamino)-2′H-spiro[cyclohexane-1,3′-imidazo[1,5-a]pyridine]-1′,5′-dione]	0.0283 µM
Cc1cc(Nc2ncnc3sc(C(=O)O)cc23)c(=O)n2c1C(=O)NC21CCCCC1 [Example 9, 4-[(8′-Methyl-1′,5′-dioxo-1′,5′-dihydro-2′H-spiro[cyclohexane-1,3′-imidazo[1,5-a]pyridin]-6′-yl)amino]thieno[2,3-d]pyrimidine-6-carboxylic acid]	0.0826 µM
Cc1cc(Nc2ncnc3sc(C(=O)N(C)C)cc23)c(=O)n2c1C(=O)NC21CCCCC1 [Example 10, N,N-Dimethyl-4-[(8′-methyl-1′,5′-dioxo-1′,5′-dihydro-2′H-spiro[cyclohexane-1,3′-imidazo[1,5-a]pyridin]-6′-yl)amino]thieno[2,3-d]pyrimidine-6-carboxamide]	0.0171 µM
COCCN(C)C(=O)c1cc2c(Nc3cc(C)c4n(c3=O)C3(CCCCC3)NC4=O)ncnc2s1 [Example 11, N-(2-Methoxyethy)-N-methyl-4-[(8′-methyl-1′,5′-dioxo-1′,5′-dihydro-2′H-spiro[cyclohexane-1,3′-imidazo[1,5-a]pyridin]-6′-yl)amino]thieno[2,3-d]pyrimidine-6-carboxamide]	0.0369 µM
Cc1cc(Nc2ncnc3sc(C(=O)N4CCN(C)CC4)cc23)c(=O)n2c1C(=O)NC21CCCCC1 [Example 12, 8′-Methyl-6′-({6-[(4-methylpiperazin-1-yl)carbonyl]thieno[2,3-d]pyrimidin-4-yl}amino)-2′H-spiro[cyclohexane-1,3′-imidazo[1,5-a]pyridine]-1′,5′-dione]	0.0272 µM
Cc1cc(Nc2ncnc3sc(C(=O)N(C)CCN(C)C)cc23)c(=O)n2c1C(=O)NC21CCCCC1 [Example 13, N-[2-(Dimethylamino)ethyl]-N-methyl-4-[(8′-methyl-1′,5′-dioxo-1′,5′-dihydro-2′H-spiro[cyclohexane-1,3′-imidazo[1,5-a]pyridin]-6′-yl)amino]thieno[2,3-d]pyrimidine-6-carboxamide]	0.0052 µM
Cc1cc(Nc2ncnc3sc(C(=O)N4CCC(N(C)C)CC4)cc23)c(=O)n2c1C(=O)NC21CCCCC1 [Example 14, 6′-[(6-{[4-(Dimethylamino)piperidin-1-yl]carbonyl}thieno[2,3-d]pyrimidin-4-yl)amino]-8′-methyl-2′H-spiro[cyclohexane-1,3′-imidazo[1,5-a]pyridine]-1′,5′-dione]	0.0041 µM
Cc1cc(Nc2ncnc3sc(C(=O)O)c(C)c23)c(=O)n2c1C(=O)NC21CCCCC1 [Example 15, 5-Methyl-4-[(8′-methyl-1′,5′-dioxo-1′,5′-dihydro-2′H-spiro[cyclohexane-1,3′-imidazo[1,5-a]pyridin]-6′-yl)amino]thieno[2,3-d]pyrimidine-6-carboxylic acid]	0.0213 µM
Cc1cc(Nc2ncnc3sc(C(=O)N(C)C)c(C)c23)c(=O)n2c1C(=O)NC21CCCCC1 [Example 16, N,N,5-trimethyl-4-[(8′-methyl-1′,5′-dioxo-1′,5′-dihydro-2′H-spiro[cyclohexane-1,3′-imidazo[1,5-a]pyridin]-6′-yl)amino]thieno[2,3-d]pyrimidine-6-carboxamide]	0.0667 µM
Cc1cc(Nc2ncnc3sc(C(=O)N(C)CCN(C)C)c(C)c23)c(=O)n2c1C(=O)NC21CCCCC1 [Example 17, N-[2-(dimethylamino)ethyl]-N,5-dimethyl-4-[(8′-methyl-1′,5′-dioxo-1′,5′-dihydro-2′H-spiro[cyclohexane-1,3′-imidazo[1,5-a]pyridin]-6′-yl)amino]thieno[2,3-d]pyrimidine-6-carboxamide]	0.0403 µM
COCCN(C)C(=O)c1sc2ncnc(Nc3cc(C)c4n(c3=O)C3(CCCCC3)NC4=O)c2c1C [Example 18, N-(2-methoxyethyl)-N,5-dimethyl-4-[(8′-methyl-1′,5′-dioxo-1′,5′-dihydro-2′H-spiro[cyclohexane-1,3′-imidazo[1,5-a]pyridin]-6′-yl)amino]thieno[2,3-d]pyrimidine-6-carboxamide]	0.105 µM
Cc1cc(Nc2ncnc3sc(C(=O)N4CCN(C)CC4)c(C)c23)c(=O)n2c1C(=O)NC21CCCCC1 [Example 19, 8′-methyl-6′-({5-methyl-6-[(4-methylpiperazin-1-yl)carbonyl]thieno[2,3-d]pyrimidin-4-yl}amino)-2′H-spiro[cyclohexane-1,3′-imidazo[1,5-a]pyridine]-1′,5′-dione]	0.0342 µM
Cc1cc(Nc2ncnc3sc(C(=O)N4CCC(N(C)C)CC4)c(C)c23)c(=O)n2c1C(=O)NC21CCCCC1 [Example 20, 6′-[(6-{[4-(Dimethylamino)piperidin-1-yl]carbonyl}-5-methylthieno[2,3-d]pyrimidin-4-yl)amino]-8′-methyl-2′H-spiro[cyclohexane-1,3′-imidazo[1,5-a]pyridine]-1′,5′-dione]	0.0352 µM
Cc1cc(Nc2ccnc(N)n2)c(=O)n2c1C(=O)NC21CCCCC1 [Example 21, 6′-[(2-Aminopyrimidin-4-yl)amino]-8′-methyl-2′H-spiro[cyclohexane-1,3′-imidazo[1,5-a]pyridine]-1′,5′-dione]	0.339 µM
Cc1cc(Nc2ccnc3[nH]ccc23)c(=O)n2c1C(=O)NC21CCCCC1 [Example 22, 8′-Methyl-6′-(1H-pyrrolo[2,3-b]pyridin-4-ylamino)-2′H-spiro[cyclohexane-1,3′-imidazo[1,5-a]pyridine]-1′,5′-dione]	0.0123 µM
